According to patent US20020160986A1, “Compounds having activity as inhibitors of cytochrome P450RAI” (priority 2000, published 2002):

Key:
RARγ = target: T1, RARγ (Homo sapiens, UniProt P13631); test: chimeric receptor transactivation assay, RARγ; format: cell-based; settings: value in parentheses
T1 sequence (P13631 185-419 limits assumed): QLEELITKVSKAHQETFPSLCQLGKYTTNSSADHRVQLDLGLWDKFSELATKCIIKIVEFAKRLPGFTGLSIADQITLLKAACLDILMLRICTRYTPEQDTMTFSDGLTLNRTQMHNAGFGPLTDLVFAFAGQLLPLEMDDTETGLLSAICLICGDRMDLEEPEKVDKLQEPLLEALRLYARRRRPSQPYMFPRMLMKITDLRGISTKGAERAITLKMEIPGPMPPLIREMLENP
Source text: (§1) Assays described below measure the ability of a compound to bind to, and/or activate various retinoid receptor subtypes. When in these assays a compound binds to a given receptor subtype and activates the transcription of a reporter gene through that subtype, then the compound is considered an agonist of that receptor subtype. […] In the below described assays the ability of the compounds to bind to RAR60 , RAR62 , RARγ, RXR60 , RXR62 , and RXRγ receptors, and the ability or inability of the compounds to activate transcription of a reporter gene through these receptor subtypes can be tested.
(§2) As far as specific assays are concerned, a chimeric receptor transactivation assay which tests for agonist-like activity in the RAR60 , RARβ, and RARγ, receptor subtypes, and which is based on work published by Feigner P. L. and Holm M. (1989) Focus, 112 is described in detail in U.S. Pat. No. 5,455,265. The specification of U.S. Pat. No. 5,455,265 is hereby expressly incorporated by reference. The numeric results obtained with several preferred compounds of this invention in this assay are shown below in Table 1.
(§3) A holoreceptor transactivation assay and a ligand binding assay which measure the antagonist/agonist like activity of the compounds of the invention, or their ability to bind to the several retinoid receptor subtypes, respectively, are described in published PCT Application No. WO WO93/11755 (particularly on pages 30-33 and 37-41) published on Jun. 24, 1993, the specification of which is also incorporated herein by reference. A detailed experimental procedure for holoreceptor transactivations has been described by Heyman et al. Cell 68,397-406, (1992); Allegretto et al. J. Biol. Chem. 268,26625-26633, and Mangelsdorf et al. The Retinoids: Biology, Chemistry and Medicine, pp 319-349, Raven Press Ltd., New York, which are expressly incorporated herein by reference. The results obtained in this assay are expressed in EC50 numbers, as they are also in the chimeric receptor transactivation assay. The results of ligand binding assay are expressed in Kd numbers. (See Cheng et al. Biochemical Pharmacology Vol. 22 pp 3099-3108, expressly incorporated herein by reference.)

RARα [1] = target: T2, RARα (Homo sapiens, UniProt P10276); test: chimeric receptor transactivation assay, RARα; format: cell-based; settings: value in parentheses
T2 sequence (P10276 183-417 limits assumed): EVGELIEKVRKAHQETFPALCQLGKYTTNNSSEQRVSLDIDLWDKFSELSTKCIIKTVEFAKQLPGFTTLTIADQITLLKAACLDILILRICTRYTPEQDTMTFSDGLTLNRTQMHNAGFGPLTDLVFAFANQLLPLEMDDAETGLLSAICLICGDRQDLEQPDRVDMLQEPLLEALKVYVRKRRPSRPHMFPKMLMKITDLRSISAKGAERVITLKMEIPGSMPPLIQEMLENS
Source text: as §1, §2, §3

RARβ = target: T3, RARβ (Homo sapiens, UniProt P10826); test: chimeric receptor transactivation assay, RARβ; format: cell-based; settings: value in parentheses
T3 sequence (P10826 183-417 limits assumed): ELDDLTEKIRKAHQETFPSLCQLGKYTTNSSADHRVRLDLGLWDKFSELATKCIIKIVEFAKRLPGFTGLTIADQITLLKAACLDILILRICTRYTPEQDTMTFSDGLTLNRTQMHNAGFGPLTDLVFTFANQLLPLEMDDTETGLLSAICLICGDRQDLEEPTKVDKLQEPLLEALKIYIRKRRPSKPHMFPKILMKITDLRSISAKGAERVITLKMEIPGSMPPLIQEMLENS
Source text: as §1
as §2, with “reference.” for “reference. The numeric results obtained with several preferred compounds of this invention in this assay are shown below in Table 1.”
as §3, with “A detailed experimental procedure for holoreceptor transactivations has been described by Heyman et al. Cell 68,397-406, (1992); Allegretto et al. J. Biol. Chem. 268,26625-26633, and Mangelsdorf et al. The Retinoids: Biology, Chemistry and Medicine, pp 319-349, Raven Press Ltd., New York, which are expressly incorporated herein by reference.” left out

RARα [2] = target: T4, RARα (Homo sapiens, UniProt P10276); test: ligand binding assay, RARα; settings: read-out: RAR α Kd
T4 sequence (P10276 1-462): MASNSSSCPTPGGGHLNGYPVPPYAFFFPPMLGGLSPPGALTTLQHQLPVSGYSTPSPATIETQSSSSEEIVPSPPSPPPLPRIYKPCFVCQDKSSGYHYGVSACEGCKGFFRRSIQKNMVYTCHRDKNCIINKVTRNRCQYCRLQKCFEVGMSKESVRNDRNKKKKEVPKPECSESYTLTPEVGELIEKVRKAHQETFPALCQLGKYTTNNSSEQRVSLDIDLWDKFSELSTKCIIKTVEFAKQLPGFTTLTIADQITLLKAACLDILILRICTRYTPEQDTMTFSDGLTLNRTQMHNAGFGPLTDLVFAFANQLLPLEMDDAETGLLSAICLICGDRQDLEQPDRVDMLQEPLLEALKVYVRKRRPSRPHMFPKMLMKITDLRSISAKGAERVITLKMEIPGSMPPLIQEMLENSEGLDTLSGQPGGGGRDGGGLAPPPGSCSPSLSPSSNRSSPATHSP
Source text: as §1
as §3, with “The results obtained in this assay are expressed in EC50 numbers, as they are also in the chimeric receptor transactivation assay. The results of ligand binding assay are expressed in Kd numbers. (See Cheng et al. Biochemical Pharmacology Vol. 22 pp 3099-3108, expressly incorporated herein by reference.)” left out

Row | RAR γ (EFFICACY) (RARγ) | RAR α (EFFICACY) (RARα [1]) | RAR β (EFFICACY) (RARβ) | Kd (RARα [2]) [µM] | SMILES
1 |  |  |  | > 10 | CC1(C)CC(C)(C)c2cc(C(=O)Oc3ccc(CC(=O)O)cc3)ccc2O1 [Compound 46, 2,2,4,4-Tetramethyl-chroman-6-carboxylic acid 4-(carboxymethyl)phenyl ester]
2 | (31) | (10) | (50) |  | COC1(c2ccc(C#Cc3ccc(C(=O)O)cc3)cc2)CC1 [Compound 69, 4-[4-(1-Methoxycyclopropyl)-phenylethynyl]-benzoic acid]
3 | (24) |  | (39) |  | CC(C)OC1(c2ccc(C#Cc3ccc(C(=O)O)cc3)cc2)CC1 [Compound 73, 4-[4-(1-Isopropoxycyclopropyl)-phenylethynyl]-benzoic acid]
4 | (67) |  | (80) |  | Cc1cc(C#Cc2ccc(C(=O)O)cc2)ccc1C1(OCc2ccccc2)CC1 [Compound 81, 4-[4-(1-Benzyloxycyclopropyl)-3-methyl-phenylethynyl]-benzoic acid]
5 | (65) | (60) | (77) |  | Cc1cc(C#Cc2ccc(C(=O)O)cc2)ccc1C1(OC(C)C)CC1 [Compound 85, 4-[4-(1-Isopropoxycyclopropyl)-3-methyl-phenylethynyl]-benzoic acid]
6 | (46) | (20) | (50) |  | Cc1cc(C#Cc2ccc(C(=O)O)cc2)ccc1C1(OCC(C)(C)C)CC1 [Compound 89, 4-[4-[1-(2,2-Dimethylpropyloxy)-cyclopropyl]-3-methyl-phenylethynyl]-benzoic acid]
7 | (55) | (114) | (39) |  | CCc1cc(C#Cc2ccc(C(=O)O)cc2)ccc1C1(OCc2ccccc2)CC1 [Compound 93, 4-[4-(1-Benzyloxycyclopropyl)-3-ethyl-phenylethynyl]-benzoic acid]
8 | (10) | (15) | (36) |  | CCCNC1(c2ccc(C#Cc3ccc(C(=O)O)cc3)cc2)CC1 [Compound 108, 4-[4-(1-Propylamino-cyclopropyl)-phenylethynyl]-benzoic acid]
9 | (42) |  | (44) |  | CCCN(CCC)C1(c2ccc(C#Cc3ccc(C(=O)O)cc3)cc2)CC1 [Compound 110, 4-[4-(1-Dipropylamino-cyclopropyl)-phenylethynyl]-benzoic acid]
10 |  |  | (37) |  | O=C(O)c1ccc(C#Cc2ccc(C3(NCc4ccccc4)CC3)cc2)cc1 [Compound 112, 4-[4-(1-Benzylamino-cyclopropyl)-phenylethynyl]-benzoic acid]

More lines, now with the values behind:

Row | SMILES | RAR γ (EFFICACY) (RARγ) | RAR α (EFFICACY) (RARα [1]) | RAR β (EFFICACY) (RARβ) | Kd (RARα [2]) [µM]
11 | CN(C1CC1)C1CCC(C)(C)c2cc(C#Cc3ccc(C(=O)O)cc3)ccc21 (stereo not drawn) [Compound 3, 4-[(5-Cyclopropyl-methyl-amino)-8,8-dimethyl-5,6,7,8-tetrahydro-naphthalene-2yl-ethynyl]-benzoic acid] | (52) | (28) | (54) | 
12 | CC1(C)CCC(=O)c2ccc(C#Cc3ccc(CC(=O)O)cc3)cc21 [Compound 5, 4-[(8,8-Dimethyl-5-oxo-5,6,7,8-tetrahydro-naphthalene-2-yl-ethynyl)-phenyl]-acetic acid] |  |  | (36) | 
13 | CN(C1CC1)C1CCC(C)(C)c2cc(C#Cc3ccc(CC(=O)O)cc3)ccc21 (stereo not drawn) [Compound 8, 4-[(5-(Cyclopropyl-methyl-amino)-8,8-dimethyl-5,6,7,8-tetrahydro-naphthalene-2-yl-ethynyl)-phenyl]-acetic acid] |  |  | (96) | 
14 | CC1(C)CCC(=O)c2ccc(C#Cc3ccc(C(=O)O)c(F)c3)cc21 [Compound 10, 2-Fluoro-4-(818-dimethyl-5-oxo-5,6,7,8-tetrahydro-naphthalen-2yl-ethynyl)-benzoic acid] | (94) | (146) | (86) | 
15 | CN(C1CC1)C1CCC(C)(C)c2cc(C#Cc3ccc(C(=O)O)c(F)c3)ccc21 (stereo not drawn) [Compound 13, 4-[5-(Cyclopropyl-methyl-amino)-8,8-dimethyl-5,6,7.8-tetrahydro-naphthalene-2-yl-ethynyl]-2-fluoro benzoic acid] | (9) |  | (6.6) | 
16 | CC1(C)CC2(CC2)Oc2ccc(C#Cc3ccc(C(=O)O)cc3)cc21 [Compound 40, Benzoic acid, 4-[(3,4-dihydro-4,4-dimethylspiro[2H-1-benzopyran-2,1′-cyclopropane]-6-yl)ethynyl]-] | (140) | (207) | (126) | 
17 | CC1(C)CC2(CC2)Oc2ccc(C#Cc3ccc(C(=O)O)c(F)c3)cc21 [Compound 44, 2-Fluoro-benzoic acid, 4-[(3,4-dihydro-4,4-dimethylspiro[2H-1-benzopyran-2,1′-cyclopropane]-6-yl)ethynyl]-] | (116) | (138) | (100) | 
